Test results taken from US4835160A, “Derivatives of pyridoindole, having anti-tumor properties” (Sanofi, priority 1986, dated 1989).

Assays:
[1] = in vivo; parameters: species or system CDF1 hybrid mice; details: mouse, ip, 50 mg/kg
Text: The compounds of the invention benefit from a good tolerance and a weak toxicity.
Thus the administration, to healthy CDF1 hybrid mice, in a single injection by intraperitoneal route, of the compounds under test, has enabled it to be established that the product is perfectly tolerated at a high dosage since the survival rate of the animals of the experiment was 100 out of 100 thirteen days after administration.

[2] = in vivo; parameters: species or system female CDF1 hybrid mice; details: mouse, iv
Protocol: In addition the administration, to healthy female CDF1 hybrid mice, in a single injection by intravenous route with a perfusor, lasting 4 minutes, of the compounds under test in solution in physiological serum at a rate of 0.1 ml of solution per 10 g weight of the animals has enabled it to be established that the compounds are also well tolerated at a high dosage in these conditions.

[3] = test system: leukemia P 388; test: Test of leukemia P 388; IP/IP, D1-5; assay type: in vivo, CDF1 hybrid mice; details: D1-D5; for Number of survivors: day D30; for T/C %: survival time
In short: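 CDF1 hybrid mice received 10^6 P 388 cells intraperitoneally, then compound in distilled water by intraperitoneal route daily D1-D5, 10 mice per group, 5-fluorouracil as positive control. Activity judged as T/C survival time versus untreated controls, survivors counted at D30; T/C ≤85% or day 5 minus day 1 weight change ≤ −4 g counted as toxic.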

[4] = test system: leukemia P388; test: Test for leukemia P388, IP/IP, D1; assay type: in vivo, CDF1 hybrid mice; details: for Number of survivors: day D30; for T/C %: survival time
Protocol: The antitumour activity was tested in vivo on various tumours inoculated in various ways according to the following general protocol:
All the male or female mice are inoculated on day D0 with a known quantity of viable tumour cells for ascitic tumours or with a known tumour fragment for solid tumours.
They are then distributed into various groups. Each group, corresponding to the animals treated by the product under test, is made up of 10 mice. The product under test is dissolved in distilled water and it is administered n times (Dx-Dy), n, y, and x varying according to the protocol chosen, at the rate of 0.1 ml of solution per 10 g by weight of mice treated and at specific doses for each protocol.
The "negative control" group, corresponding to the animals which are not treated by the product, contains 2√N animals, N being equal to or greater than the total number of mice treated by the product in the same experiment.
Finally, the tests can also be carried out at the same time as the study of a group called "positive control", of ten animals, which is treated by a molecule, known for its antitumour activity and which can vary according to the protocol chosen, in the same conditions as the groups treated by the product under test.
The antitumour activity is evaluated, in the case of ascitic tumours, by considering the increase in the survival time of the animals treated in comparison to that of the animals in the "negative control" group, according to the formula: [formula]
Also, a product is considered as toxic at the dose studied when this T/C value is equal to or less than 85%. In addition, a product is also considered as toxic at the dose studied when the weight variation, expressed in grams and calculated by the formula: […]
The tests are carried out with CDF1 hybrid mice inoculated by intraperitoneal route with 10^6 leukemia cells from the P 388 line. The compound under test is administered for 5 successive days (D1-D5) by intraperitoneal route. The positive control for the test is 5-fluorouracile which is administered in the same conditions. The number of surviving animals is evaluated on day D30.
(b) Test for Leukemia P388, IP/IP, D1 (GERAN et al. Cancer chemother., 1972, 2, 07-57).
The test is carried out according to the preceding protocol, the compound under test being administered only on day D1.

[5] = test system: melanoma B 16; test: Test for melanoma B 16; assay type: in vivo, BDF1 hybrid mice; details: D1-D9; for Number of survivors: day D60; for T/C %: survival time
In short: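 BDF1 mice inoculated i.p. with 0.5 ml B16 melanoma homogenate (1 g tumour in 10 ml physiological serum); compound given i.p. daily D1–D9, Cis-platine positive control under same conditions. Surviving animals counted on D60; activity as survival increase vs untreated controls (T/C), toxicity if T/C ≤85%.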

CCN(CC)CCCNc1ncc(C)c2[nH]c3ccc(O)cc3c12 [Derivative No. 7, 1-(diethylaminopropylamino)-8-hydroxy-4-methyl-5H-pyrido[4,3-b]indole]
survival at 312 h [1]: 100% | survival at 192 h ([2]; 25 mg/kg): 100% | survival at 192 h ([2]; 30 mg/kg): 100% | Median day of survival ([3]; 0.625 mg/kg IP): 14.3 days | Variation by weight (g) ([3]; 0.625 mg/kg IP): +0.3 g | Number of survivors ([3]; 0.625 mg/kg IP): 0/10 | T/C % ([3]; 0.625 mg/kg IP): 127% | Median day of survival ([3]; 1.25 mg/kg IP): 17.25 days | Variation by weight (g) ([3]; 1.25 mg/kg IP): +0.3 g | Number of survivors ([3]; 1.25 mg/kg IP): 0/10 | T/C % ([3]; 1.25 mg/kg IP): 153% | Median day of survival ([3]; 2.5 mg/kg IP): 18.25 days | Variation by weight (g) ([3]; 2.5 mg/kg IP): +0.1 g | Number of survivors ([3]; 2.5 mg/kg IP): 0/10 | T/C % ([3]; 2.5 mg/kg IP): 162% | Median day of survival ([3]; 5 mg/kg IP): 19.25 days | Variation by weight (g) ([3]; 5 mg/kg IP): +0.3 g | Number of survivors ([3]; 5 mg/kg IP): 0/10 | T/C % ([3]; 5 mg/kg IP): 170% | Median day of survival ([3]; 10 mg/kg IP): 20.9 days | Variation by weight ([3]; 10 mg/kg IP): -0.2 g | Number of survivors ([3]; 10 mg/kg IP): 0/10 | T/C % ([3]; 10 mg/kg IP): 185% | Median day of survival ([3]; 15 mg/kg IP): 23.55 days | Variation by weight (g) ([3]; 15 mg/kg IP): +1.6 g | Number of survivors ([3]; 15 mg/kg IP): 3/10 | T/C % ([3]; 15 mg/kg IP): 208% | Median day of survival ([3]; 20 mg/kg IP): 27.0 days | Variation by weight ([3]; 20 mg/kg IP): -1.1 g | Number of survivors ([3]; 20 mg/kg IP): 1/10 | T/C % ([3]; 20 mg/kg IP): 238% | Median day of survival ([3]; 30 mg/kg IP): 9.25 days | Variation by weight ([3]; 30 mg/kg IP): 0.0 g | Number of survivors ([3]; 30 mg/kg IP): 0/10 | T/C % ([3]; 30 mg/kg IP): 81% | Median day of survival ([4]; 10 mg/kg IP): 15.1 days | Variation by weight (g) ([4]; 10 mg/kg IP): +1.2 g | Number of survivors ([4]; 10 mg/kg IP): 0/10 | T/C % ([4]; 10 mg/kg IP): 129% | Median day of survival ([4]; 20 mg/kg IP): 16.25 days | Variation by weight (g) ([4]; 20 mg/kg IP): +0.2 g | Number of survivors ([4]; 20 mg/kg IP): 0/10 | T/C % ([4]; 20 mg/kg IP): 139% | Median day of survival ([4]; 40 mg/kg IP): 15.9 days | Variation by weight ([4]; 40 mg/kg IP): -0.2 g | Number of survivors ([4]; 40 mg/kg IP): 0/10 | T/C % ([4]; 40 mg/kg IP): 136% | Median day of survival ([4]; 80 mg/kg IP): 2.3 days | Variation by weight ([4]; 80 mg/kg IP): -1.7 g | Number of survivors ([4]; 80 mg/kg IP): 0/10 | T/C % ([4]; 80 mg/kg IP): 20% | Median day of survival ([5]; 2.5 mg/kg IP): 34 days | Variation by weight (g) ([5]; 2.5 mg/kg IP): +3.6 g | Number of survivors ([5]; 2.5 mg/kg IP): 0/10 | T/C % ([5]; 2.5 mg/kg IP): 124% | Median day of survival ([5]; 5 mg/kg IP): 48 days | Variation by weight ([5]; 5 mg/kg IP): -0.1 g | Number of survivors ([5]; 5 mg/kg IP): 0/10 | T/C % ([5]; 5 mg/kg IP): 174% | Median day of survival ([5]; 10 mg/kg IP): 56.25 days | Variation by weight (g) ([5]; 10 mg/kg IP): +1.6 g | Number of survivors ([5]; 10 mg/kg IP): 4/10 | T/C % ([5]; 10 mg/kg IP): 205% | Median day of survival ([5]; 20 mg/kg IP): 58 days | Variation by weight ([5]; 20 mg/kg IP): -0.8 g | Number of survivors ([5]; 20 mg/kg IP): 5/10 | T/C % ([5]; 20 mg/kg IP): 211% | Median day of survival ([5]; 30 mg/kg IP): 9.0 days | Variation by weight ([5]; 30 mg/kg IP): -1.0 g | Number of survivors ([5]; 30 mg/kg IP): 0/10 | T/C % ([5]; 30 mg/kg IP): 33%
